For data set [1], the system named is MRSA BAA-1707. The experiment in a line: MIC broth microdilution, MRSA BAA-1707. Conditions: Table 4. The format is cell-based, Staphylococcus aureus. The protocol: The minimum inhibitory concentration (MIC) for each tested compound was determined by the broth microdilution method as recommended by the Clinical and Laboratory Standards Institute (CLSI). In a 96-well plate, eleven two-fold serial dilutions of each compound were made in a final volume of 100 μL Luria Broth. Each well was inoculated with ˜10^5 bacterial cells at the initial time of incubation, prepared from a fresh log phase culture (OD600 of 0.5 to 1.0 depending on bacterial strain). […] (MIC values were supported by spectrophotometric readings at OD600). DMSO served as our vehicle and negative control in each microdilution MIC assay. DMSO was serially diluted with a top concentration of 1% v/v.
Each well was inoculated with ˜10^5 bacterial cells at the initial time of incubation, prepared from a fresh log phase culture (OD600 of 0.5 to 1.0 depending on bacterial strain). […] The concentration range tested for each compound during this study was 0.10 to 100 μM. DMSO served as our vehicle and negative control in each microdilution MIC assay. DMSO was serially diluted with a top concentration of 1% v/v. All MIC values were obtained from a minimum of three independent experiments.

Data set [2] concerns Klebsiella pneumoniae (ATCC 13883). The experiment in a line: MIC broth microdilution, K. pneumoniae 13883. Conditions: Table 4. In kind it is cell-based. As for the experimental part:
(§1) The minimum inhibitory concentration (MIC) for each tested compound was determined by the broth microdilution method as recommended by the Clinical and Laboratory Standards Institute (CLSI). In a 96-well plate, eleven two-fold serial dilutions of each compound were made in a final volume of 100 μL Luria Broth. Each well was inoculated with ˜10^5 bacterial cells at the initial time of incubation, prepared from a fresh log phase culture (OD600 of 0.5 to 1.0 depending on bacterial strain). The MIC was defined as the lowest concentration of compound that prevented bacterial growth after incubating 16 to 18 hours at 37° C. (MIC values were supported by spectrophotometric readings at OD600). DMSO served as our vehicle and negative control in each microdilution MIC assay. DMSO was serially diluted with a top concentration of 1% v/v.
as §1, with “for each compound was” for “for each tested compound was”, “Standards Institute (CLSI).^6 In a” for “Standards Institute (CLSI). In a”, “concentration of test compound that” for “concentration of compound that”, “37° C. The concentration range tested for each compound during this study was 0.10 to 100 μM. DMSO served” for “37° C. (MIC values were supported by spectrophotometric readings at OD600). DMSO served”, “1% v/v. All MIC values were obtained from a minimum of three independent experiments.” for “1% v/v.”
(Dilution methods test growth across graded concentrations, often in twofold steps.)

The subject of data set [3] is human red blood cells (hRBC). Briefly: Hemolysis of red blood cells. The format is cell-based. As to conditions: for RBC HC50: Table 4, concentration required to lyse 50% of red blood cells. As for the experimental part:
The washing was repeated three times with the buffer. In a 96-well plate, test compounds were added to the buffer from DMSO stocks. […] The plate was then incubated for 1 hour at 37° C. After incubation, the plate was centrifuged for 5 minutes at 3,500 rpm. Then 80 μL of the supernatant was transferred to another 96-well plate and the optical density (OD) was read at 405 nm. DMSO served as our negative control (0% hemolysis) while Triton X served as our positive control (100% hemolysis). […] All reported data correspond to three independent experiments. Ten-point dose-response curves were generated in 96-well plates to determine 50% hemolysis (HC50 values) of red blood cells.
The washing was repeated three times with the buffer. In 96-well plate, the test compounds were added to the buffer. Then 50 μL of 2% of hRBCs in the buffer were added to the test plate to make the final concentrations ranging from 0.2 to 200 μM of each test compound. The plate was then incubated for 1 hour at 37° C. After incubation, the plate was centrifuged for 5 minutes at 3500 rpm and then 80 μL of the supernatant was transferred to another 96-well plate and the Optical Density (OD) was read at 405 nm. DMSO served as our negative control (0% haemolysis) and Triton X served as our positive control (100% haemolysis). The HC50 (concentration of test compound required to lyse red blood cells by 50%) was calculated by plotting the dose-response curve (not shown) with Graphpad Prism 6.0. All data were obtained from three independent haemolysis experiments.

Data set [4] deals with vancomycin-resistant Enterococcus faecium (VRE strain ATCC 700221). Briefly: MIC broth microdilution, VRE 700221. Conditions: for MIC VRE 700221: Table 4. The format is cell-based. The protocol:
as §1
as §1, with “for each compound was” for “for each tested compound was”, “Standards Institute (CLSI).^6 In a” for “Standards Institute (CLSI). In a”, “concentration of test compound that” for “concentration of compound that”, “37° C. The concentration range tested for each compound during this study was 0.10 to 100 μM. DMSO served” for “37° C. (MIC values were supported by spectrophotometric readings at OD600). DMSO served”, “1% v/v. All MIC values were obtained from a minimum of three independent experiments.” for “1% v/v.”

Data set [5] concerns Escherichia coli clinical isolate (UAEC-1). Briefly: MIC broth microdilution, UAEC-1. In kind it is cell-based. As to conditions: Table 4. The protocol: as §1
as §1, with “for each compound was” for “for each tested compound was”, “Standards Institute (CLSI).^6 In a” for “Standards Institute (CLSI). In a”, “concentration of test compound that” for “concentration of compound that”, “37° C. The concentration range tested for each compound during this study was 0.10 to 100 μM. DMSO served” for “37° C. (MIC values were supported by spectrophotometric readings at OD600). DMSO served”, “1% v/v. All MIC values were obtained from a minimum of three independent experiments.” for “1% v/v.”

Data set [6] relates to methicillin-resistant Staphylococcus epidermidis (MRSE strain ATCC 35984). The experiment in a line: MIC broth microdilution, MRSE 35984. The format is cell-based. As to conditions: for MIC MRSE 35984: Table 4. The protocol: as §1
as §1, with “for each compound was” for “for each tested compound was”, “Standards Institute (CLSI).^6 In a” for “Standards Institute (CLSI). In a”, “concentration of test compound that” for “concentration of compound that”, “37° C. The concentration range tested for each compound during this study was 0.10 to 100 μM. DMSO served” for “37° C. (MIC values were supported by spectrophotometric readings at OD600). DMSO served”, “1% v/v. All MIC values were obtained from a minimum of three independent experiments.” for “1% v/v.”

Data set [7] deals with Acinetobacter baumannii (ATCC 1794). Briefly: MIC broth microdilution, A. baumannii 1794. The format is cell-based. Conditions: for MIC A. bau. 1794: Table 4. As for the experimental part: as §1
as §1, with “for each compound was” for “for each tested compound was”, “Standards Institute (CLSI).^6 In a” for “Standards Institute (CLSI). In a”, “concentration of test compound that” for “concentration of compound that”, “37° C. The concentration range tested for each compound during this study was 0.10 to 100 μM. DMSO served” for “37° C. (MIC values were supported by spectrophotometric readings at OD600). DMSO served”, “1% v/v. All MIC values were obtained from a minimum of three independent experiments.” for “1% v/v.”

Data set [8] relates to Pseudomonas aeruginosa (PAO1). The experiment in a line: MIC broth microdilution, PAO1. The format is cell-based. The protocol:
as §1
as §1, with “for each compound was” for “for each tested compound was”, “Standards Institute (CLSI).^6 In a” for “Standards Institute (CLSI). In a”, “concentration of test compound that” for “concentration of compound that”, “37° C. The concentration range tested for each compound during this study was 0.10 to 100 μM. DMSO served” for “37° C. (MIC values were supported by spectrophotometric readings at OD600). DMSO served”, “1% v/v. All MIC values were obtained from a minimum of three independent experiments.” for “1% v/v.”

Data set [9] relates to methicillin-resistant Staphylococcus aureus MRSA-2 (clinical isolate). Briefly: MIC broth microdilution, MRSA-2. The format is cell-based. As for the experimental part:
as §1
as §1, with “for each compound was” for “for each tested compound was”, “Standards Institute (CLSI).^6 In a” for “Standards Institute (CLSI). In a”, “concentration of test compound that” for “concentration of compound that”, “37° C. The concentration range tested for each compound during this study was 0.10 to 100 μM. DMSO served” for “37° C. (MIC values were supported by spectrophotometric readings at OD600). DMSO served”, “1% v/v. All MIC values were obtained from a minimum of three independent experiments.” for “1% v/v.”

For data set [10], the system named is VRE ATCC 700221 biofilms. The experiment in a line: Calgary Biofilm Device assay (MBC/MBEC), VRE 700221. The format is cell-based, Enterococcus faecium. Conditions: Table 2A; CBD assay. As for the experimental part: (§2) The lid of the Calgary device was then removed, washed and transferred to another 96-well plate containing 2-fold serial dilutions of the test compounds (the “challenge plate”). The total volume of media with compound in each well in the challenge plate is 150 μL. […] The lid was then removed from the challenge plate and MBC/MBEC values were determined using different final assays. […] The MBC values were determined as the concentration giving a lack of visible bacterial growth (i.e., turbidity). […] In select experiments, pegs from the Calgary device were removed from lead biofilm eradicators after final incubation, sonicated for 30 minutes in PBS and plated out to determine biofilm cell killing of lead biofilm-eradicating agents (i.e., colony forming unit per milliliter, CFU/mL).
(§3) Using a Calgary Biofilm Device, bacterial biofilms are established on pegs suspended to the bottom of a 96-well plate lid. Following biofilm establishment on lid pegs, lids are then transferred to new 96-well plates containing serial dilutions of test compound and allowed to incubate. After compound treatment, 96-well plate lids with pegs are once again transferred to 96-well plates containing fresh media. During this final phase of the assay, viable biofilms will grow and disperse planktonic cells into the media where they will grow and give a turbid well result. Conversely, wells that have no growth are a result of pegs that had eradicated bacterial biofilms. The lowest concentration at which no turbidity is observed is the minimum biofilm eradication concentration (MBEC). Using the Calgary Biofilm Device, both minimum biofilm eradication concentrations and minimum bactericidal concentrations (MBC) for planktonic bacterial can be determined using one assay from a single bacterial culture (FIG. 3A).

In data set [11] the test system is MRSA BAA-1707 biofilms. The experiment in a line: Calgary Biofilm Device assay (MBC/MBEC), MRSA BAA-1707. Conditions: Table 2A; CBD assay. The format is cell-based, Staphylococcus aureus. The protocol: as §2, §3
Data set [12] relates to MRSA-2 biofilms. The experiment in a line: Calgary Biofilm Device assay (MBC/MBEC), MRSA-2. The format is cell-based, Staphylococcus aureus. As to conditions: Table 2A; CBD assay. As for the experimental part:
as §2, §3

The subject of data set [13] is MRSE ATCC 35984 biofilms. Briefly: Calgary Biofilm Device assay (MBC/MBEC), MRSE 35984. The format is cell-based, Staphylococcus epidermidis. Conditions: Table 2A; CBD assay. The protocol:
as §2, §3

Usually HC50 stands for the concentration giving 50% haemolysis. Higher therefore signals less damage to red cells. The term MIC denotes the lowest concentration that inhibits growth of the organism.

SMILES strings stand for the structures. Marks after values point to notes of the source that are not given here. A value given as a limit tells only on which side of the number the result lay.

As for `CCCCCCCCCCCCCCCCn1cc[n+](Cc2ccccc2C[n+]2ccn(CCCCCCCCCCCCCCCC)c2C)c1C.[Br-].[Br-]` [Compound 29], the “MIC MRSA 1707” value in data set [1] was above 100 µM. For the same molecule, in data set [2], the “MIC K. pneu. 13883” value is above 100 µM. Besides, in data set [3], the “RBC HC50” value was determined as 34.5 µM. Further, the “MIC VRE 700221” value in data set [4] was above 100 µM. The “MIC UAEC-1” value in data set [5] is above 100 µM. For the same molecule, the “MIC MRSE 35984” value in [6] is above 100 µM. Besides, the “MIC A. bau. 1794” value in data set [7] was above 100 µM. The “MIC PAO1” value in data set [8] (Table 4) was above 100 µM. In [9] (Table 4), the “MIC MRSA-2” value is above 100 µM.

Consider `CCCCCCCCCCCCCCCCn1cc[n+](Cc2ccc(F)cc2C(F)(F)F)c1C.[Br-]` [Compound 16], for which, in data set [10], the “VRE MBC” value turned out to be 2.0 µM⁻¹ and the “VRE MBEC” value is on record as 3.0^a μM. This molecule registered an HC50 in [3] (Table 1A) of 10.7 µM. Further, in data set [3], the “RBC HC50” value amounted to 10.7 µM. For the same molecule, the MIC E. faecium VRE 700221 in data set [4] (Table 1A) came out at 1.56 µM. Further, in [4] (Table 2A), the “VRE MIC” value was 1.56 µM. For the same molecule, the “MIC VRE 700221” value in [4] amounted to 1.56 µM. Also, in data set [11], the “MRSA BAA-1707 MBC” value is given as 62.5^b/ μM and the “MRSA BAA-1707 MBEC” value was 93.8^a μM. For the same molecule, in data set [12], the “MRSA-2 MBC” value is 62.5/62.5 μM and the “MRSA-2 MBEC” value is recorded as 62.5/62.5 μM. In addition, the MIC S. epidermidis MRSE 35984 in [6] (Table 1A) stood at 3.13 µM. The MIC in data set [6] (Table 2A, read-out: MRSE 35984 MIC) was 3.13 µM. In addition, the “MIC MRSE 35984” value in data set [6] worked out at 3.13 µM. For the same molecule, in [7] (Table 1A, in µM), the “MIC A. baumannii 1794” value is above 100. Also, the “MIC A. bau. 1794” value in data set [7] is above 100 µM. The molecule further yielded an MIC PAO1 in data set [8] (Table 1A) above 100 µM. Also, the “MIC PAO1” value in data set [8] (Table 4) is above 100 µM. The same molecule returned an MIC MRSA-2 in [9] (Table 1A) of 3.13 µM. The “MRSA-2 MIC” value in data set [9] (Table 2A) stood at 3.13 µM. In addition, the “MIC MRSA-2” value in data set [9] (Table 4) turned out to be 3.13 µM. Moreover, in data set [13], the “MRSE 35984 MBC” value is recorded as 23.5^a/ μM and the “MRSE 35984 MBEC” value is on record as 23.5^a μM.

For the origin of these results see US11419335B2, “N-arylated analogues and uses thereof” (University of Florida Research Foundation, Incorporated, priority 2016, dated 2022).
